# From patent publication US20070293543A1, “THRESHOLD BLOOD OMEPRAZOLE CONCENTRATION IS 50 NG/ML FOR THE MAINTENANCE OF INTRAGASTRIC pH OF AT LEAST 4.0 AFTER ORAL DOSING WITH CMA-OMEPRAZOLE, AGN 201904-Z” (priority 2006, published 2007)
# System: intragastric pH
# Assay: 24-hr intragastric pH monitoring (pharmacodynamics)
# Type: in vivo, healthy male subjects
# Details: oral once-daily dosing; for % time intragastric pH ≧4.0: 24-hr monitoring, p<0.0001 vs esomeprazole, dose level and day not stated
# Description: Methods: Forty healthy male subjects received 240, 480, and 640 mg AGN 201904-Z or 40 mg esomeprazole orally once-daily for 5 days in a open-label, randomized, 4-way cross-over study. These doses were estimated to deliver molar equivalent omeprazole doses of 53%, 107%, and 143% of the esomeprazole dose, respectively. Pharmacokinetic (PK) blood samples were collected at 8 timepoints following the 1st and 5th dose of each treatment. Pharmacodynamics (PD) were evaluated via 24-hr intragastric ph monitoring before treatment and after the 1st and 5th doses of each treatment. Empirical PK/PD models were constructed for AGN 201904-Z data by regressing the % time that intragastric pH ≧4.0 during a 24-hr dosing period against the duration of time that blood omeprazole concentrations were greater than 8 different concentrations over the same 24-hr period. The possible threshold concentrations evaluated ranged from 10 to 400 ng/mL. The concentration that provided the best-fit was designated the threshold concentration. The best-fit concentration and model was chosen based on the WSSR, R^2, visual inspection, and AIC value. Results: Among the possible omeprazole threshold concentrations evaluated, 50 ng/mL was the best-fit concentration value in all of the models evaluated.
SMILES,% time intragastric pH ≧4.0,"maintaining 24-hour intragastric pH ≧4.0, comparison with esomeprazole (healthy male subjects)"
"COc1ccc2c(c1)nc([S+]([O-])Cc1ncc(C)c(OC)c1C)n2S(=O)(=O)c1ccc(OCC(=O)[O-])cc1.[Na+] (stereo not drawn) [AGN 201904-Z, sodium {4-[5-Methoxy-2-(4-methoxy-3,5-dimethyl-pyridin-2-ylmethanesulfinyl)-benzoimidazole-1-sulfonyl]-phenoxy}-acetate]",80.1 % of 24-hr,more effective than esomeprazole
"COc1ccc2nc([S@@+]([O-])Cc3ncc(C)c(OC)c3C)[nH]c2c1 [esomeprazole, reference compound]",68.4 % of 24-hr,
